In publication PMC7567791 (Scientific Reports, 2020):

Target: T1, μ-OR (Homo sapiens, UniProt P35372)
T1 construct: expressed in transfected cells; host or cells: HEK293A parental, ΔGRK2, ΔGRK3, ΔGRK2/3 (and Δβ-arrestin1/2) cells
Type: cell-based

T1 sequence (P35372 whole entry): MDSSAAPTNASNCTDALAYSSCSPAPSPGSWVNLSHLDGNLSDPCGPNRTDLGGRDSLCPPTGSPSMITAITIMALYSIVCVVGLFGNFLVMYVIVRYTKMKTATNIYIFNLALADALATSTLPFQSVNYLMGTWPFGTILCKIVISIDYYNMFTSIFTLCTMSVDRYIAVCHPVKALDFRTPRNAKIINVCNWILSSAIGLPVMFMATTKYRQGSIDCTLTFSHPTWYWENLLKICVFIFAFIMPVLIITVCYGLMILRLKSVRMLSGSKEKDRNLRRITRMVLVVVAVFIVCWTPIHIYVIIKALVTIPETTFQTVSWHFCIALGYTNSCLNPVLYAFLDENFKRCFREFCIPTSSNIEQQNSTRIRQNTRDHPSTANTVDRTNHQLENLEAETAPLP

For `C[C@@H](NC(=O)[C@@H](N)Cc1ccc(O)cc1)C(=O)NCC(=O)N(C)[C@@H](Cc1ccccc1)C(=O)NCCO` [DAMGO, D-Ala(2)-mephe(4)-gly-ol(5))enkephalin], the “time of peak in β-arrestin2 recruitment to μ-OR-EYFP” value was 6 min.
